Source: ChEMBL document CHEMBL1201862, “PubChem BioAssay data set” (2004)
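Exposure lasted 48 hours, with cells grown in 96-well plates and compounds tested at five concentrations. The concentration for 50% growth inhibition is given as GI50.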 Active and inactive are the calls of the source. Cut-off read from the data, not from the text of the source: active = GI50 up to about 1.1 µM and inactive = higher. Where a SMILES comes first, the peptide text is derived from it. [ ]: non-standard residue; d: D form. Hiv = CC(C)[C@H](O)C(=O)O

Tests used:
Test in all cases: DTP human tumour cell line panel, 48 h
TK-10 = test system: TK-10
NCI-H23 = test system: NCI-H23
LOX IMVI = test system: LOX IMVI
SW-620 = test system: SW-620
MCF7 = test system: MCF7
T47D = test system: T47D
MOLT-4 = test system: MOLT-4
M14 = test system: M14
SNB-75 = test system: SNB-75
NCI-H460 = test system: NCI-H460
DU-145 = test system: DU-145
U-251 = test system: U-251
MDA-MB-231 = test system: MDA-MB-231
K562 = test system: K562
UACC-257 = test system: UACC-257
SK-OV-3 = test system: SK-OV-3
HOP-92 = test system: HOP-92
OVCAR-8 = test system: OVCAR-8
ACHN = test system: ACHN
HOP-62 = test system: HOP-62

SMILES | GI50 (TK-10) | GI50 (NCI-H23) | GI50 (LOX IMVI) | GI50 (SW-620) | GI50 (MCF7) | GI50 (T47D) | GI50 (MOLT-4) | GI50 (M14) | GI50 (SNB-75) | GI50 (NCI-H460) | GI50 (DU-145) | GI50 (U-251) | GI50 (MDA-MB-231) | GI50 (K562) | GI50 (UACC-257) | GI50 (SK-OV-3) | GI50 (HOP-92) | GI50 (OVCAR-8) | GI50 (ACHN) | GI50 (HOP-62)
Cc1ccc(NC(=O)c2cc(S(=O)(=O)Nc3n[nH]c(=O)n3-c3ccccc3)c(S)cc2Cl)cc1 | > 100 µM (inactive) | > 100 µM (inactive) | > 100 µM (inactive) | > 100 µM (inactive) | > 100 µM (inactive) | > 100 µM (inactive) | > 100 µM (inactive) | > 100 µM (inactive) | > 100 µM (inactive) | > 100 µM (inactive) | > 100 µM (inactive) | > 100 µM (inactive) | > 100 µM (inactive) | > 100 µM (inactive) | > 100 µM (inactive) | > 100 µM (inactive) | > 100 µM (inactive) | > 100 µM (inactive) |  | 
CCOC(=O)C(NC(=O)CC(C)C)(NC(C)C)C(F)(F)F (centres undefined) | > 100 µM (inactive) | > 100 µM (inactive) | > 100 µM (inactive) | > 100 µM (inactive) | > 100 µM (inactive) | > 100 µM (inactive) | > 100 µM (inactive) | > 100 µM (inactive) |  | > 100 µM (inactive) | > 100 µM (inactive) | > 100 µM (inactive) | > 100 µM (inactive) | > 100 µM (inactive) | > 100 µM (inactive) | > 100 µM (inactive) | > 100 µM (inactive) | > 100 µM (inactive) | > 100 µM (inactive) | > 100 µM (inactive)
Nc1nc(Cl)cc(NCC2(CO)CC(CCCc3ccccc3)C2)n1 (centres undefined) | > 77.4 µM (inactive) |  | 0.282 µM (active) | > 100 µM (inactive) | 0.0492 µM (active) | 2.31 µM (inactive) | > 26.9 µM (inactive) | > 100 µM (inactive) | > 46 µM (inactive) | > 69.5 µM (inactive) | > 100 µM (inactive) | > 85.3 µM (inactive) | > 100 µM (inactive) | 2.11 µM (inactive) | 0.242 µM (active) | 41.4 µM (inactive) | 34 µM (inactive) | > 72.1 µM (inactive) | > 41.8 µM (inactive) | > 100 µM (inactive)
CN1c2ccccc2C(=O)Nc2cnc(Cl)nc21 | > 100 µM (inactive) | > 100 µM (inactive) | > 100 µM (inactive) | > 100 µM (inactive) | > 100 µM (inactive) | > 100 µM (inactive) | > 100 µM (inactive) | > 100 µM (inactive) | 39.2 µM (inactive) |  | > 100 µM (inactive) | 45.5 µM (inactive) | 44.3 µM (inactive) | > 100 µM (inactive) | > 100 µM (inactive) | > 100 µM (inactive) | 35.7 µM (inactive) | 65.2 µM (inactive) | > 100 µM (inactive) | 31.1 µM (inactive)
O=c1c(Cc2ccc(Cl)cc2)nnc2sc(-c3ccc(-c4ccc(F)c(Cl)c4)o3)nn12 | > 100 µM (inactive) | 44.5 µM (inactive) | 70.5 µM (inactive) | 54.5 µM (inactive) | 32.7 µM (inactive) | 80.2 µM (inactive) | 43.7 µM (inactive) | 64.6 µM (inactive) |  | 55 µM (inactive) | > 100 µM (inactive) | 99.5 µM (inactive) | > 100 µM (inactive) | 37.6 µM (inactive) | 97.3 µM (inactive) | > 100 µM (inactive) | 58.7 µM (inactive) | 58.7 µM (inactive) | 35.7 µM (inactive) | > 100 µM (inactive)
CC(=O)Oc1ccc(/C=C/C(=O)O[C@@H](C(=O)O)[C@@H](OC(=O)/C=C/c2ccc(OC(C)=O)c(OC(C)=O)c2)C(=O)O)cc1OC(C)=O | > 100 µM (inactive) | > 100 µM (inactive) | > 100 µM (inactive) | > 100 µM (inactive) | > 100 µM (inactive) | > 100 µM (inactive) |  | > 100 µM (inactive) | 82.8 µM (inactive) | > 100 µM (inactive) | > 100 µM (inactive) | > 100 µM (inactive) | > 100 µM (inactive) | > 100 µM (inactive) | > 100 µM (inactive) | > 100 µM (inactive) | > 100 µM (inactive) | > 100 µM (inactive) | > 100 µM (inactive) | > 100 µM (inactive)
Clc1ccc(CCN2CCN(CCCc3ccccc3)CC2)cc1Cl | 16.2 µM (inactive) | 16.9 µM (inactive) | 17.2 µM (inactive) | 20 µM (inactive) | 17.5 µM (inactive) | 17.2 µM (inactive) | 29.6 µM (inactive) | 14.4 µM (inactive) |  | 17.7 µM (inactive) | 16.4 µM (inactive) | 17.4 µM (inactive) | 16.8 µM (inactive) | 26.6 µM (inactive) | 17.1 µM (inactive) | 19.3 µM (inactive) | 11.3 µM (inactive) | 16.3 µM (inactive) | 19.6 µM (inactive) | 18.5 µM (inactive)
CC(C)[C@@H]1OC(=O)[C@@H](C)NC(=O)[C@@H]2CCCN2C1=O (cyclo([Hiv]-Pro-[dA])) | > 100 µM (inactive) | > 100 µM (inactive) | > 100 µM (inactive) | > 100 µM (inactive) | > 100 µM (inactive) | > 100 µM (inactive) | > 100 µM (inactive) | > 100 µM (inactive) |  | > 100 µM (inactive) | > 100 µM (inactive) |  | > 100 µM (inactive) |  | > 100 µM (inactive) | > 100 µM (inactive) | > 100 µM (inactive) | > 100 µM (inactive) | > 100 µM (inactive) | > 100 µM (inactive)
